Source: the supplement of paper PMC13380429

Legend:
Details in all cases: 72 h
[1] = tested on: U2OS; experiment: cell viability relative to DMSO; higher = less toxic
[2] = tested on: HepG2; experiment: as above
[3] = tested on: Caco-2; experiment: as above
[4] = tested on: Vero E6; experiment: as above
[5] = tested on: U2OS; experiment: drug sensitivity score (DSS) for viability; higher = more toxic; extreme values may be limits of the assay
[6] = tested on: HepG2; experiment: as above
[7] = tested on: Caco-2; experiment: as above
[8] = tested on: Vero E6; experiment: as above
[9] = tested on: U2OS; experiment: relative viability EC50 (midpoint between 100% and the lowest measured viability); higher = less toxic
[10] = tested on: HepG2; experiment: as above
[11] = tested on: Caco-2; experiment: as above
[12] = tested on: Vero E6; experiment: as above
[13] = tested on: Calu-3; experiment: cell viability relative to DMSO; higher = less toxic
[14] = tested on: Calu-3; experiment: drug sensitivity score (DSS) for viability; higher = more toxic; extreme values may be limits of the assay
[15] = tested on: Calu-3; experiment: relative viability EC50 (midpoint between 100% and the lowest measured viability); higher = less toxic

O=C(O)Cc1sc(-c2ccccc2)nc1-c1ccc(Cl)cc1 [fentiazac]
cell viability ([1]; 1 nM): 99% | cell viability ([1]; 10 nM): 98.7% | cell viability ([1]; 100 nM): 95.2% | cell viability ([1]; 1000 nM): 93.9% | cell viability ([1]; 10000 nM): 92.4% | cell viability ([2]; 1 nM): 95.3% | cell viability ([2]; 10 nM): 103% | cell viability ([2]; 100 nM): 97.6% | cell viability ([2]; 1000 nM): 103% | cell viability ([2]; 10000 nM): 94.9% | cell viability ([3]; 1 nM): 100% | cell viability ([3]; 10 nM): 98.9% | cell viability ([3]; 100 nM): 92.6% | cell viability ([3]; 1000 nM): 97.6% | cell viability ([3]; 10000 nM): 95.3% | cell viability ([4]; 1 nM): 99.3% | cell viability ([4]; 10 nM): 101% | cell viability ([4]; 100 nM): 96% | cell viability ([4]; 1000 nM): 99.7% | cell viability ([4]; 10000 nM): 92.2% | drug sensitivity score [5]: 0 | drug sensitivity score [6]: 0 | drug sensitivity score [7]: 0 | drug sensitivity score [8]: 0 | relative viability EC50 [9]: > 10 µM | relative viability EC50 [10]: > 10 µM | relative viability EC50 [11]: > 10 µM | relative viability EC50 [12]: > 10 µM

N=C(N)c1ccc(-c2ccc(-c3ccc(C(=N)N)cc3)o2)cc1 [furamidine]
cell viability ([2]; 1 nM): 109% | cell viability ([2]; 10 nM): 97.2% | cell viability ([2]; 100 nM): 96.4% | cell viability ([2]; 1000 nM): 79.9% | cell viability ([2]; 10000 nM): 59.7% | cell viability ([13]; 1 nM): 92.6% | cell viability ([13]; 10 nM): 104% | cell viability ([13]; 100 nM): 97.1% | cell viability ([13]; 1000 nM): 96.4% | cell viability ([13]; 10000 nM): 110% | cell viability ([3]; 1 nM): 97% | cell viability ([3]; 10 nM): 92.8% | cell viability ([3]; 100 nM): 98.1% | cell viability ([3]; 1000 nM): 101% | cell viability ([3]; 10000 nM): 95% | cell viability ([4]; 1 nM): 99.7% | cell viability ([4]; 10 nM): 97.3% | cell viability ([4]; 100 nM): 97.9% | cell viability ([4]; 1000 nM): 97.8% | cell viability ([4]; 10000 nM): 102% | drug sensitivity score [6]: 4.1 | drug sensitivity score [14]: 0 | drug sensitivity score [7]: 0 | drug sensitivity score [8]: 0 | relative viability EC50 [15]: > 10 µM | relative viability EC50 [11]: > 10 µM | relative viability EC50 [12]: > 10 µM

O=C(CC1NCCCC1O)Cn1cnc2cc(Br)c(Cl)cc2c1=O (centres undefined) [halofuginone]
cell viability ([1]; 1 nM): 98.9% | cell viability ([1]; 10 nM): 101% | cell viability ([1]; 100 nM): 98.1% | cell viability ([1]; 1000 nM): 32.2% | cell viability ([1]; 10000 nM): 1.9% | cell viability ([2]; 1 nM): 102% | cell viability ([2]; 10 nM): 88.9% | cell viability ([2]; 100 nM): 24.1% | cell viability ([2]; 1000 nM): 2.9% | cell viability ([2]; 10000 nM): 0.6% | cell viability ([3]; 1 nM): 95% | cell viability ([3]; 10 nM): 107% | cell viability ([3]; 100 nM): 81.7% | cell viability ([3]; 1000 nM): 28.6% | cell viability ([3]; 10000 nM): 25.1% | cell viability ([4]; 1 nM): 99.7% | cell viability ([4]; 10 nM): 100% | cell viability ([4]; 100 nM): 42% | cell viability ([4]; 1000 nM): 11.4% | cell viability ([4]; 10000 nM): 0% | drug sensitivity score [5]: 13.4 | drug sensitivity score [6]: 27.9 | drug sensitivity score [7]: 15.7 | drug sensitivity score [8]: 24.5 | relative viability EC50 [9]: 0.678 µM | relative viability EC50 [10]: 0.0439 µM | relative viability EC50 [11]: 0.183 µM | relative viability EC50 [12]: 0.0842 µM

CCS(=O)(=O)Nc1ccc2c(c1)/C(=C(/Nc1ccc(CN3CCCCC3)cc1)c1ccccc1)C(=O)N2 [hesperadin]
cell viability ([1]; 1 nM): 102% | cell viability ([1]; 10 nM): 94.3% | cell viability ([1]; 100 nM): 80% | cell viability ([1]; 1000 nM): 22.1% | cell viability ([1]; 10000 nM): 0% | cell viability ([2]; 1 nM): 99.1% | cell viability ([2]; 10 nM): 94.4% | cell viability ([2]; 100 nM): 58.8% | cell viability ([2]; 1000 nM): 8.8% | cell viability ([2]; 10000 nM): 5.1% | cell viability ([13]; 1 nM): 107% | cell viability ([13]; 10 nM): 95.7% | cell viability ([13]; 100 nM): 84.8% | cell viability ([13]; 1000 nM): 70.3% | cell viability ([13]; 10000 nM): 62.1% | cell viability ([3]; 1 nM): 95.1% | cell viability ([3]; 10 nM): 91.8% | cell viability ([3]; 100 nM): 90.7% | cell viability ([3]; 1000 nM): 68.7% | cell viability ([3]; 10000 nM): 48.4% | cell viability ([4]; 1 nM): 92.7% | cell viability ([4]; 10 nM): 101% | cell viability ([4]; 100 nM): 82.7% | cell viability ([4]; 1000 nM): 73.2% | cell viability ([4]; 10000 nM): 16.9% | drug sensitivity score [5]: 16.9 | drug sensitivity score [6]: 21.5 | drug sensitivity score [14]: 6.8 | drug sensitivity score [7]: 6.9 | drug sensitivity score [8]: 7.6 | relative viability EC50 [9]: 0.329 µM | relative viability EC50 [10]: 0.119 µM | relative viability EC50 [11]: 0.512 µM | relative viability EC50 [12]: 1.52 µM

CC[C@H]1CN2CC[C@H]1C[C@@H]2[C@@H](O)c1ccnc2ccc(OC)cc12 [hydroquinidine]
cell viability ([1]; 1 nM): 99.9% | cell viability ([1]; 10 nM): 99.4% | cell viability ([1]; 100 nM): 97.3% | cell viability ([1]; 1000 nM): 97.8% | cell viability ([1]; 10000 nM): 98.6% | cell viability ([2]; 1 nM): 91.7% | cell viability ([2]; 10 nM): 95.1% | cell viability ([2]; 100 nM): 101% | cell viability ([2]; 1000 nM): 89.1% | cell viability ([2]; 10000 nM): 93.1% | cell viability ([3]; 1 nM): 105% | cell viability ([3]; 10 nM): 106% | cell viability ([3]; 100 nM): 94.6% | cell viability ([3]; 1000 nM): 94.7% | cell viability ([3]; 10000 nM): 87.4% | cell viability ([4]; 1 nM): 97.4% | cell viability ([4]; 10 nM): 102% | cell viability ([4]; 100 nM): 103% | cell viability ([4]; 1000 nM): 107% | cell viability ([4]; 10000 nM): 91% | drug sensitivity score [5]: 0 | drug sensitivity score [6]: 0 | drug sensitivity score [7]: 0.1 | drug sensitivity score [8]: 0 | relative viability EC50 [9]: > 10 µM | relative viability EC50 [10]: > 10 µM | relative viability EC50 [11]: > 10 µM | relative viability EC50 [12]: > 10 µM

O=C(O)c1c(Sc2ccccc2)c2cc(Cl)ccc2n1Cc1ccc(Cl)cc1 [nTZDpa]
cell viability ([1]; 1 nM): 96.6% | cell viability ([1]; 10 nM): 101% | cell viability ([1]; 100 nM): 92.1% | cell viability ([1]; 1000 nM): 96.2% | cell viability ([1]; 10000 nM): 101% | cell viability ([2]; 1 nM): 96.9% | cell viability ([2]; 10 nM): 92.1% | cell viability ([2]; 100 nM): 96.8% | cell viability ([2]; 1000 nM): 97.3% | cell viability ([2]; 10000 nM): 90.7% | cell viability ([3]; 1 nM): 97.1% | cell viability ([3]; 10 nM): 97% | cell viability ([3]; 100 nM): 105% | cell viability ([3]; 1000 nM): 96.6% | cell viability ([3]; 10000 nM): 90.4% | cell viability ([4]; 1 nM): 99.6% | cell viability ([4]; 10 nM): 96% | cell viability ([4]; 100 nM): 99.5% | cell viability ([4]; 1000 nM): 95.4% | cell viability ([4]; 10000 nM): 89.8% | drug sensitivity score [5]: 0 | drug sensitivity score [6]: 0 | drug sensitivity score [7]: 0 | drug sensitivity score [8]: 0 | relative viability EC50 [9]: > 10 µM | relative viability EC50 [10]: > 10 µM | relative viability EC50 [11]: > 10 µM | relative viability EC50 [12]: > 10 µM

Cc1ccnc2c1NC(=O)c1cccnc1N2C1CC1 [nevirapine]
cell viability ([1]; 1 nM): 97.2% | cell viability ([1]; 10 nM): 101% | cell viability ([1]; 100 nM): 101% | cell viability ([1]; 1000 nM): 101% | cell viability ([1]; 10000 nM): 98.9% | cell viability ([13]; 1 nM): 104% | cell viability ([13]; 10 nM): 90.6% | cell viability ([13]; 100 nM): 109% | cell viability ([13]; 1000 nM): 96.8% | cell viability ([13]; 10000 nM): 87.8% | cell viability ([3]; 1 nM): 87.3% | cell viability ([3]; 10 nM): 86.8% | cell viability ([3]; 100 nM): 101% | cell viability ([3]; 1000 nM): 97% | cell viability ([3]; 10000 nM): 100% | cell viability ([4]; 1 nM): 94.3% | cell viability ([4]; 10 nM): 107% | cell viability ([4]; 100 nM): 96.5% | cell viability ([4]; 1000 nM): 104% | cell viability ([4]; 10000 nM): 108% | drug sensitivity score [5]: 0 | drug sensitivity score [14]: 0.2 | drug sensitivity score [7]: 0 | drug sensitivity score [8]: 0 | relative viability EC50 [9]: > 10 µM | relative viability EC50 [15]: > 10 µM | relative viability EC50 [11]: > 10 µM | relative viability EC50 [12]: > 10 µM

NCCCCN [putrescine]
cell viability ([1]; 1 nM): 99.2% | cell viability ([1]; 10 nM): 97.1% | cell viability ([1]; 100 nM): 97.6% | cell viability ([1]; 1000 nM): 93.6% | cell viability ([1]; 10000 nM): 96.7% | cell viability ([2]; 1 nM): 110% | cell viability ([2]; 10 nM): 101% | cell viability ([2]; 100 nM): 110% | cell viability ([2]; 1000 nM): 97.3% | cell viability ([2]; 10000 nM): 93% | cell viability ([3]; 1 nM): 118% | cell viability ([3]; 10 nM): 102% | cell viability ([3]; 100 nM): 102% | cell viability ([3]; 1000 nM): 89% | cell viability ([3]; 10000 nM): 93.1% | cell viability ([4]; 1 nM): 104% | cell viability ([4]; 10 nM): 112% | cell viability ([4]; 100 nM): 100% | cell viability ([4]; 1000 nM): 98.1% | cell viability ([4]; 10000 nM): 90.4% | drug sensitivity score [5]: 0 | drug sensitivity score [6]: 0 | drug sensitivity score [7]: 0.2 | drug sensitivity score [8]: 0 | relative viability EC50 [9]: > 10 µM | relative viability EC50 [10]: > 10 µM | relative viability EC50 [11]: > 10 µM | relative viability EC50 [12]: > 10 µM
